Results reported in patent US12661388B2, “Assessing and treating acute decompensated heart failure” (Mayo Foundation for Medical Education and Research, priority 2020, dated 2026).

What was measured:
human GC-A = target: T1, human GC-A (Homo sapiens, UniProt P16066); experiment: cGMP generation in HEK293 cells transfected with human GC-A receptor; type: cell-based; settings: vs vehicle; for cGMP generation: HEK293 cells overexpressing human GC-A, 10^-8, 10^-7, 10^-6 M, 10 minutes
T1 construct: host or cells: HEK293
T1 sequence (P16066 33-1061): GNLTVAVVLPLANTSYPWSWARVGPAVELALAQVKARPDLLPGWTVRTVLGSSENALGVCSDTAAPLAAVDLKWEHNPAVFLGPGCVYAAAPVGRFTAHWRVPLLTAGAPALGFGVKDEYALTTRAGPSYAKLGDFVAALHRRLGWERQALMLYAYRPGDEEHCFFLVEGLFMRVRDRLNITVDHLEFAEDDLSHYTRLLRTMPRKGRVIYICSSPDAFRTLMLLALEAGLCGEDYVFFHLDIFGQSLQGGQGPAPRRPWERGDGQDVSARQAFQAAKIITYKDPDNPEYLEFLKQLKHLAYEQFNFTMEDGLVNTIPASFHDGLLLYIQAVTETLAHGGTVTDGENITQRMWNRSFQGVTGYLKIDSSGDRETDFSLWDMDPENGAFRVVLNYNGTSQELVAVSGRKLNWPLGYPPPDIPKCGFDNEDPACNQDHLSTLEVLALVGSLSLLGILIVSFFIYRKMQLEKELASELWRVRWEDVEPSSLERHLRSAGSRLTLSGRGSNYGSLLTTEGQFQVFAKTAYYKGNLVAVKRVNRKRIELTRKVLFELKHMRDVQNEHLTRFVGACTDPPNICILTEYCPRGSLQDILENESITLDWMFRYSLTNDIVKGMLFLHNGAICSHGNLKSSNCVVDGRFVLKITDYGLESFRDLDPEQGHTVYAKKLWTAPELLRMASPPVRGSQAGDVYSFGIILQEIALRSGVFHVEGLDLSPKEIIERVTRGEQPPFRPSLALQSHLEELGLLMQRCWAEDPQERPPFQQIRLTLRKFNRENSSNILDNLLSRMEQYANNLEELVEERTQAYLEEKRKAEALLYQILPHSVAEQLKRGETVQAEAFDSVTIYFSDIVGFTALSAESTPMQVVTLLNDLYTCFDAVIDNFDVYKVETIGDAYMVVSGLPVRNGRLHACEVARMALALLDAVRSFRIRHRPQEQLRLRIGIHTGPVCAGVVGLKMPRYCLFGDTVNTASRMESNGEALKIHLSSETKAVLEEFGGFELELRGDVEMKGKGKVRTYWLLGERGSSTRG
Text: (§1) cGMP Generation in HEK293 Cells Transfected with Human GC-B or GC-A Receptor In Vitro: HEK293 cells were stably transfected with either human GC-B or GC-A (cDNA clones from Origene, Rockville, MD) using LIPOFECTAMINE® (Invitrogen, Grand Island, NY). Receptors overexpression was verified with immunofluorescence and western blotting. GC-B/-A transfected HEK293 cells were maintained in Dulbecco's modified Eagle's medium supplemented with 10% fetal bovine serum, 100 U/mL penicillin, 100 U/mL streptomycin, and 250 μg/mL G418. Cells were seeded in 48-well plates and cultured overnight to reach 80-90% confluency. The treatment buffer that includes, Hank's Balanced Salt Solution (HBSS) including 0.1% BSA, 2 mM HEPES and 0.5 mM 3-isobutyl-1-methylzanthine (IBMX—a non-specific phosphodiesterase inhibitor, Sigma, St. Louis, MO), was used in all experiments. HEK293 cells received treatment buffer (vehicle) only was used as a negative control and ANP (10^−8M) was used as a positive control in HEK293 GC-A cells and CNP (10^−8 M) was used as a positive control in HEK293 GC-B cells. Concentrations of CD-NP, CRRL-404, CRRL-405, CRRL-407 or CRRL=408 (10^−8, 10^−7, and 10^−6 M) in HBSS were incubated with HEK293 transfected GC-B or GC-A cells for 10 minutes. After treatment, all cells were washed with phosphate buffered solution (PBS) once and lysed with 0.1M HCl. Intracellular cGMP was measured in the lysate using a commercial cGMP ELISA kit (Enzo Life Sciences, Farmingdale, NY) as instructed by the manufacturer.
(§2) cGMP Assay: The ELISA plate was coated in neutralizing solution (50 μL), prior to addition of samples and standards. Cell lysates (100 μL) and standards (100 μL), in 0.1M HCL, were incubated with cGMP conjugate (50 μL) and cGMP antibody (50 μL) at room temperature for 2 hours, 500 rpm. The plates were washed 4 times and 200 μL of pNPP substrate was added in each well and incubated for 1 hour at room temperature. The reaction was stopped by adding stop solution and absorbance was read at 405 nm and corrected for plate imperfections at 570 nm using SpectramaxM2. Standard curve was generated using the Softmaxpro software and unknown concentrations were extrapolated based on the standard curve. Samples exceeding the standard curve were diluted as needed in 0.1M HCl and corresponding dilution factors were applied to extrapolate final concentrations. The standard curve range is from 0.8 pmol/mL-500 pmol/mL. The % CV at EC50 is 6.6%.

human GC-B = target: T2, human GC-B (Homo sapiens, UniProt P20594); experiment: cGMP generation in HEK293 cells transfected with human GC-B receptor; type: cell-based; settings: vs vehicle; for cGMP generation: HEK293 cells overexpressing human GC-B, 10^-8, 10^-7, 10^-6 M, 10 minutes
T2 construct: host or cells: HEK293
T2 sequence (P20594 23-1047): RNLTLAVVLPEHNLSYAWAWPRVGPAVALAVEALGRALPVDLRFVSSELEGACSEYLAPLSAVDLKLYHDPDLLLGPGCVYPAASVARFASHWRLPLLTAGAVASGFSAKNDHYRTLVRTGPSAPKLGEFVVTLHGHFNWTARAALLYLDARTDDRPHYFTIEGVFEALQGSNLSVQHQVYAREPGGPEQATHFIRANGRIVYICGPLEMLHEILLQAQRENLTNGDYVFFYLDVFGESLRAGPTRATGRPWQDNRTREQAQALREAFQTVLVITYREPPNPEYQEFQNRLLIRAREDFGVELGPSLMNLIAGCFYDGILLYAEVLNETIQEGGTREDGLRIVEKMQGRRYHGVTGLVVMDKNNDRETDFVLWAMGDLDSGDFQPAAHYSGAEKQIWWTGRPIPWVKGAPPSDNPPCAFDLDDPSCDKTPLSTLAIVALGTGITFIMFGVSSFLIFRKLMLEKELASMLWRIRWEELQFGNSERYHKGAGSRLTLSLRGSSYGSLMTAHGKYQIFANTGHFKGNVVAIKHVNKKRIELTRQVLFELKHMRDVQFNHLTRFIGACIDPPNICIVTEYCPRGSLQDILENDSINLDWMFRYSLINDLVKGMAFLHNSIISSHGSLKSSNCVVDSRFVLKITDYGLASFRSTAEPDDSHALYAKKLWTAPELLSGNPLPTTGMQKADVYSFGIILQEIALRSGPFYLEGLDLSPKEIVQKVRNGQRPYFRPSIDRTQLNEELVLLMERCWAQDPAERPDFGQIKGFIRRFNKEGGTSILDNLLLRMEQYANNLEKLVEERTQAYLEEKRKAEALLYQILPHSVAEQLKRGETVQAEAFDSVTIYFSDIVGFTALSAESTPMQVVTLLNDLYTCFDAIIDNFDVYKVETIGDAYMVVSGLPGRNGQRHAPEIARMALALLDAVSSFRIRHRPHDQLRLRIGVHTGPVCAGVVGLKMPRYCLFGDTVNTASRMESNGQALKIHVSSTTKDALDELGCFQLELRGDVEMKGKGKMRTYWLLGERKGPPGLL
Text: as §1, §2

[1] = tested on: human renal proximal tubular cells (HRPTCs); experiment: cGMP generation in human renal proximal tubular epithelial cells; type: cell-based; settings: 10^-8, 10^-7, 10^-6 M, 10 minutes, vs vehicle
Procedure: (§3) cGMP Generation in Human Primary Renal Cells: Human primary renal fibroblasts (HRFs, Cell Biologics, Chicago, IL) and human renal proximal tubular epithelial cells (HRPTCs, ScienCell Research Laboratories, Carlsbad, CA) were maintained and sub-cultured according to the manufacturer's protocols. Briefly, the cells were grown in 6-well plates until 80% confluency and were then treated with treatment buffer (vehicle; HBSS including 0.1% BSA, 2 mM HEPES and 0.5 mM IBMX) alone or with concentrations of CRRL-408 (10^−8, 10^−7 and 10^−6 M) for 10 minutes. Cells were washed with PBS once and lysed with 0.1M HCl. Intracellular cGMP was measured in the lysate using a commercial cGMP ELISA kit (Enzo Life Sciences, Farmingdale, NY) as instructed by the manufacturer described below.
(§4) cGMP Assay: The ELISA plate was coated in neutralizing solution (50 μL), prior to addition of samples and standards. Cell lysates (100 μL) and standards (100 μL), in 0.1M HCL, were incubated with cGMP conjugate (50 μL) and cGMP antibody (50 μL) at room temperature for 2 hours, 500 rpm. The plates were washed 4 times and 200 μL of pNPP substrate was added in each well and incubated for 1 hour at room temperature. The reaction was stopped by adding stop solution and absorbance was read at 405 nm and corrected for plate imperfections at 570 nm using SpectramaxM2. […]

[2] = tested on: human renal fibroblasts (HRFs); experiment: cGMP generation in human primary renal fibroblasts; type: cell-based; settings: 10^-8, 10^-7, 10^-6 M, 10 minutes, vs vehicle
Procedure: as §3, §4

normal rats = experiment: Acute IV infusion in vivo study, plasma and urinary cGMP; parameters: species or system rat; settings: IV infusion 2.12 μg/kg/min, vs vehicle (saline)
Procedure: Acute IV Infusion In Vivo Study: the cGMP generating actions of 2.12 μg/kg/minute dose CRRL-408 or vehicle (0.9% normal saline) [n=4/group] was investigated in normal rats (approximately 2 months old; 200-250 grams; Envigo, East Millstone, NJ). Studies were performed in accordance with the Animal Welfare Act and with approval of the Mayo Clinic Institutional Animal Care and Use Committee.
Rats were anesthetized with isoflurane (2-3% in oxygen) and were subjected to vessel and bladder cannulation for peptide/vehicle infusion, blood sampling and urine collection. A polyethylene (PE)-50 tube catheter was placed into the jugular vein for CRRL-408/vehicle intravenous (IV) infusion. The carotid artery was cannulated with a PE-50 tube catheter for blood sampling. The bladder was accessed and cannulated with a PE-50 tube catheter for passive urine collection. After completion of the above procedural set up, a 30 minute equilibration period was performed that included continuous IV saline infusion. After the 30 minute equilibration period the saline infusion was replaced by a continuous IV infusion (75 min including a 15 minute lead-in period) of 2.12 μg/kg/minute dose of CRRL-408 or vehicle. The infusion rate was weight adjusted and calculated as follows: rat weight (grams)*0.7/60/100 mL/minute. […]

ANKKGLSKGCFGLKLDRIGSMSGLGCPSLRDPRPNAPSTSA [CRRL-405]
cGMP generation (human GC-A): stimulated cGMP generation | cGMP generation (human GC-B): stimulated cGMP generation

ANP: natriuretic peptide used as a positive control in HEK293 GC-A cells [reference compound]
cGMP generation (positive control) (human GC-A; HEK293 GC-A cells, 10^-8 M): significant cGMP generation response

CNP: C-type natriuretic peptide, used as a positive control in HEK293 GC-B cells [reference compound]
cGMP generation (positive control) (human GC-B; HEK293 GC-B cells, 10^-8 M): significant cGMP generation response

GLSKGCFGLKLDRIGSMSGLGCPSLRDPRPNAP STSA [CD-NP, reference compound]
cGMP generation (human GC-A): stimulated cGMP generation | cGMP generation (human GC-B): stimulated cGMP generation

KGANKKGLSKGCFGLKLDRIGSMSGLGCPSLRDPRPNAPSTSA [CRRL-407]
cGMP generation (human GC-A): stimulated cGMP generation | cGMP generation (human GC-B): stimulated cGMP generation

KKGLSKGCFGLKLDRIGSMSGLGCPSLRDPRPNAPSTSA [CRRL-404]
cGMP generation (human GC-A): stimulated cGMP generation | cGMP generation (human GC-B): stimulated cGMP generation

KYKGANKKGLSKGCFGLKLDRIGSMSGLGCPSLRDPRPNAPSTSA [CRRL-408]
cGMP generation (human GC-A): stimulated cGMP generation | intracellular cGMP levels [1]: increased intracellular cGMP levels in a dose dependent manner | intracellular cGMP levels [2]: increased intracellular cGMP levels in a dose dependent manner | cGMP generation (human GC-B): stimulated cGMP generation | plasma cGMP (normal rats): significantly elevated | urinary cGMP (normal rats): significantly elevated
